Measured values from publication PMC4279401 (Oncotarget, 2014).
pEC50, pIC50: −log10 of the molar value. Entries after “also recorded” stand apart in the source; their conditions may differ. Where two headings read alike, the source gives them in different places.

Legend:
[1] = tested on: MDA-MB231, BT549 and MCF-7 breast cancer cells; assay: Cell proliferation, MTT assay, DOT1L+ breast cancer cells; assay type: cell-based, Human; settings: Homo sapiens, 360 h
[2] = tested on: MDA-MB157; assay: Cell proliferation, MTT assay; assay type: cell-based; settings: Homo sapiens, read-out: Anti-proliferative activity EC50
[3] = tested on: MDA-MB231 cells; assay: CD44/CD24 flow cytometry; assay type: cell-based, Human; settings: MDA-MB231, FACS, in words
Protocol: (§1) 5 × 10^4 cells/well were incubated with compounds for 14 days. The ALDH activity of cells was determined by using the ALDEFLUOR assay kit (StemCell Technologies) according to the manufacturer's instructions. Combinations of fluorochrome-conjugated monoclonal antibodies against human CD44-FITC and CD24-PE were obtained from BD Biosciences. Primary antibodies or the respective isotype controls (BD Biosciences) were added to the cell suspension, according to the manufacturer's recommendation, and incubated at 4°C for 20 min. Dead cells were eliminated using propidium iodide (Sigma). The labelled cells were analyzed on a FACS Calibur (BD Biosciences/Applied Biosystems).

[4] = tested on: MDA-MB231; assay: Transwell cell migration assay; assay type: cell-based, Human
Protocol: (§2) 5 × 10^4 cells/well were incubated with compounds for 14 days. For transwell migration assays, 5× 10^4 cells were plated in the top chamber with the non-coated membrane (24-well insert; pore size, […]; BD Biosciences). For invasion assays, 5× 10^4 cells were plated in the top chamber with Matrigel-coated membrane. The cells on the apical side of each insert were then scraped off after 22 h for both assays. The wells were washed with PBS, fixed with 100% methanol and stained with DAPI. Cells that had migrated to the basal side of the membrane were visualized and counted with a Nikon Eclipse TE2000-U microscope at 10×. Pictures of three random fields were obtained and the number of cells that had migrated quantified using ImageJ analysis software.

[5] = in words; cited from earlier work
[6] = tested on: five breast cancer cell lines, lung cancer A549 and non-MLL leukemia NB4 cells; assay: Cell proliferation, MTT assay, whole panel; assay type: cell-based; settings: Homo sapiens, 72 h; 3-day treatment, all seven cell lines; read-out: EC50 against all of these cells
[7] = tested on: MDA-MB231 cells; assay: ALDEFLUOR assay; assay type: cell-based, Human; settings: in words
Protocol: as §1

[8] = tested on: HCC70; assay: Cell proliferation, MTT assay; assay type: cell-based; settings: Homo sapiens, read-out: Anti-proliferative activity EC50
[9] = tested on: MDA-MB157 and HCC70 as well as A549 and NB4; settings: in words
[10] = tested on: NB4; assay: Cell proliferation, MTT assay; assay type: cell-based; settings: Homo sapiens, read-out: Anti-proliferative activity EC50
[11] = tested on: A549; assay: Cell proliferation, MTT assay; assay type: cell-based, Human; settings: for pEC50: Homo sapiens, read-out: Anti-proliferative activity EC50
[12] = tested on: MCF-7; assay: Cell proliferation, MTT assay; assay type: cell-based; settings: Homo sapiens, read-out: Anti-proliferative activity EC50
[13] = tested on: MDA-MB231; assay: Cell proliferation, MTT assay; assay type: cell-based; settings: Homo sapiens, read-out: Anti-proliferative activity EC50
[14] = tested on: BT549; assay: Cell proliferation, MTT assay; assay type: cell-based; settings: Homo sapiens, read-out: Anti-proliferative activity EC50
[15] = tested on: MDA-MB231; assay: Matrigel invasion assay; assay type: cell-based, Human
Protocol: as §2

[16] = tested on: MDA-MB231 cells; assay: Microarray gene set enrichment analysis; assay type: cell-based, Human; settings: 1 at 5 μM, 2 at 10 μM, in words
Protocol: 10^5 cells/well were incubated with compounds for 14 days. Cells were lysed immediately in TRIzol® Reagent, frozen in liquid nitrogen, and shipped to Asuragen, Inc. (Austin, TX) for microarray experiments. RNA was isolated, amplified, and hybridized to Illumina Human HT-12 v4 arrays according to the manufacturer's protocol. Microarray data were log2 transformed and then normalized to have the same median for all the arrays. Moderate t-statistics were used to test if genes were differentially expressed between the groups of interest. Benjamini and Hochberg method was used to correct for multiple comparisons. R and Bioconductor packages were used for all the statistical analyses (http://cran.us.r-project.org/, http://www.bioconductor.org/). Gene set enrichment analysis was performed using GSEA software from Broad Institute (Boston, MA).

[17] = tested on: H3K79 methylation; assay: Western blot of histone methylation in MCF-7; assay type: cell-based, Human; settings: MCF-7, Western blot, in words
Protocol: (§3) Human cell lines BT549, MDA-MB231, MCF-7, MDA-MB157, HCC70, A549 and NB4 were obtained from the American Type Culture Collection (ATCC) and cultured using ATCC recommended conditions. Primary antibodies against H3K79me2, H3K27me3, H3K4me3, H3K36me2, H4K20me3, H3K9me-pan were purchased from Cell Signaling (Danvers, MA). siRNA experiments were performed by transfecting MDA-MB-231 cells with X-tremeGENE Transfection Reagent (Roche) and 10 nM siRNA (Invitrogen), according to the manufacturer's protocol.
(§4) 10^6 cells/well were incubated with increasing concentrations of a compound for 5 days and histones extracted with the EpiQuik™ Total Histone Extraction Kit (Epigentek) according to the manufacturer's protocol. Equal amounts of histones (2μg) were separated on SDS-PAGE and transferred to PVDF membranes. The blots were probed with primary antibodies, followed by anti-rabbit IgG (Thermo Scientific) secondary antibodies. For western blot analysis of MDA-MB231 xenograft tumors, tumors were harvested and frozen in liquid nitrogen. Histones were extracted and analyzed by immunoblotting as described above.

[18] = tested on: H3K79 methylation; assay: Western blot of histone methylation in MDA-MB231; assay type: cell-based, Human
Protocol: as §3, §4

CC(C)N(CCCNC(=O)Nc1ccc(C(C)(C)C)cc1)C[C@H]1O[C@@H](n2ccc3c(N)ncnc32)[C@H](O)[C@@H]1O [Compound 1, EPZ004777]
pEC50 ([1]; 15-day treatment, MDA-MB231, BT549, MCF-7, read-out: EC50 against proliferation): 5.85 to 6.72 | pEC50 ([1]; DOT1L+ breast cancer cells, 15-day, read-out: anti-proliferation EC50): ≤ 6.72 | pEC50 ([2]; MDA-MB-157, 72 h, MDA-MB157, 3-day treatment): < 4.30 | pEC50 ([2]; MDA-MB-157, 360 h, MDA-MB157, 15-day treatment): 4.57 | CD44+/CD24− cell population [3]: significantly decreased | cell population expressing high levels of CD24 [3]: considerably more cells expressed higher levels of CD24; also recorded: increased cell population | inhibition of cell migration ([4]; MDA-MB231, Transwell): ~ 50% | cell migration and invasion ([4]; MDA-MB231, Transwell with and without Matrigel, in words): reduced abilities of cell migration and invasion | pharmacokinetics [5]: poor pharmacokinetics with short plasma half-lives | pEC50 [6]: ≤ 4.82 | ALDH+ cell population [7]: considerably reduced | pEC50 ([8]; 72 h, HCC70, 3-day treatment): 4.70 | pEC50 ([8]; 360 h, HCC70, 15-day treatment): 4.92 | activity against DOT1L−/low breast or non-breast cancer cells [9]: inactive | pEC50 ([10]; NB-4, 72 h, NB4, 3-day treatment): 4.68 | pEC50 ([10]; NB-4, 360 h, NB4, 15-day treatment): 4.66 | pEC50 ([11]; 72 h, A549, 3-day treatment): 4.72 | pEC50 ([11]; 360 h, A549, 15-day treatment): 4.70 | activity against A549 cells ([11]; in words): negligible activity | pEC50 ([12]; MCF7, 72 h, MCF-7, 3-day treatment): 4.82 | pEC50 ([12]; MCF7, 360 h, MCF-7, 15-day treatment): 6.02 | pEC50 ([13]; MDA-MB-231, 72 h, MDA-MB231, 3-day treatment): 4.35 | pEC50 ([13]; MDA-MB-231, 360 h, MDA-MB231, 15-day treatment): 6.72 | pEC50 ([14]; BT-549, 72 h, BT549, 3-day treatment): 4.54 | pEC50 ([14]; BT-549, 360 h, BT549, 15-day treatment): 6.15 | inhibition of Matrigel invasion [15]: ~25% | genes whose expression is low in breast CSCs (GSEA) [16]: upregulation | pro-proliferation genes in the PAM50 gene set (GSEA) [16]: downregulation | effect on H3K79 methylation [17]: significantly reduced H3K79 methylation; also recorded: considerably reduced H3K79 methylation | pIC50 ([18]; Homo sapiens, MDA-MB-231, read-out: IC50 of H3K79 methylation inhibition): ~7.30 | effect on H3K79 methylation ([18]; in words): only inhibited H3K79 methylation
